Data: patent US20240199601A1, “QUINONE COMPOUND AND PHARMACEUTICAL USE THEREOF” (NANJING SHUPENG LIFE SCIENCE CO., LTD., priority 2021, published 2024)

Legend:
[1] = system: inflammatory pain model (complete Freund's adjuvant); experiment: Inflammatory pain model (complete Freund's adjuvant), mechanical pain threshold; type: in vivo, SD rats; conditions: rats
Procedure: 4 SD rats with a body weight of 200-250 g were used as a blank control (NC), and normal saline was injected into the soles of the left feet of the rats. Inflammatory pain models of 18 rats were constructed, that is to say, 100 μL of a complete Freund's adjuvant was injected into soles of the left feet of the rats, mechanical pain thresholds of the left feet were detected by an ALMEMO2490 data collector 24 hours later, 2 rats with a pain threshold of greater than 15 were abandoned, and the other 16 rats were randomly divided into 4 groups with 4 rats in each group and then administered with water as a positive control (PC), SP3101 (20 mg/kg), PQQ (20 mg/kg) and ibuprofen (25 mg/kg/day) by gavage, respectively.

[2] = system: inflammatory pain model with AMPK inhibited; experiment: Long-acting analgesic mechanism: CFA pain model with AMPK inhibitor compound c; type: in vivo, SD rats; conditions: compound c (Dorsomorphin) into caudal vein half an hour before oral SP3101 20 mg/kg, rats
Procedure: Similar to the modeling method in Activity Test 1, 100 uL of a complete Freund's adjuvant was injected into the soles of the left feet of SD rats with a body weight of 200-250 g, mechanical pain thresholds of the left feet were detected by an ALMEMO2490 data collector 24 hours later, and the rats with a pain threshold of greater than 15 were abandoned. On the second day of modeling, 100 μL of a compound c as an AMPK inhibitor (Dorsomorphin, CAS No.866405-64-3, CC, 0.4 mg/ml) was injected into the caudal vein of each rat, the rats were orally administered with SP3101 (20 mg/kg) half an hour later, and the pain thresholds were detected after 1.5 hours and 24 hours, respectively.

[3] = system: chronic constriction injury (CCI) model; experiment: Neuropathic pain, CCI model of the sciatic nerve, Von Frey; type: in vivo, B6 mice; conditions: 40 mg/kg by gavage, 1.5, 24 and 48 hours after administration, CCI mice, p<0.01
Description: A CCI model was used for realizing neuropathic pain. 6- to 8-week-old B6 mice were anesthetized, shaved from the roots of the left legs to parts about 1-2 mm higher than the horizontal lines of the tail root bones, and cut horizontally to obtain small wounds. Muscles were bluntly separated by hemostatic forceps, the sciatic nerves were found and picked out with elbow tweezers, and 4-0 chromium-containing catgut sutures soaked in sterile normal saline in advance were picked out with another elbow tweezer. Three catgut sutures were penetrated through the sciatic nerve of each mouse and ligatured in an upper part, a middle part and a lower part at a distance of 1 mm, respectively at an appropriate intensity enabling surrounding muscles to have small and transient twitches. […]
On day 7 after surgery, mechanical pain thresholds of the mice were detected by using Von Frey fibrils. […] Then, the mice were stimulated again at an adjacent lower intensity, and the intensity interval of first positive responses and negative responses was recorded. […]
The test mice were divided into three groups: an unmolded group, a molded solvent group and a molded administration group. 0.5% methylcellulose was used as a solvent, SP3101 was used as a drug and administered at a dose of 40 mg/kg according to the body weight each time, and the pain thresholds were detected 1.5, 24, 48 and 72 hours after administration.

[4] = system: movement of the mice in an open field; experiment: Sedation test, open field test (OFT); type: in vivo, B6 mice; conditions: single intraperitoneal injection 20 or 50 mg/kg, 2 hours after administration
Procedure: A total of 15 12-week-old male B6 mice were selected and allowed to adapt to the environment for three days. The mice were randomly divided into 3 groups including: (1) a blank control group (n=5), (2) a low-dose SP3101 group at a dose of 20 mg/kg (n=5) and (3) a high-dose SP3101 group at a dose of 50 mg/kg (n=5). The mice were administered by intraperitoneal injection at a single dose according to the groups, where the mice in the blank control group were administered with an equal volume of normal saline by intraperitoneal injection. 2 hours after the administration, the mice were traced by a video tracking and detection system in an open field test (OFT), followed by behavioral evaluation.

[5] = system: AMPK; experiment: AMPK phosphorylation level in a variety of cells; type: cell-based; conditions: 100 nM

O=C1C(=O)c2nc(O)cc(C(=O)O)c2-c2[nH]ccc21 [SP3101, 4,5-dioxo-4,5-dihydro-1H-pyrrolo[2,3-f]quinone-7-hydroxy-9-carboxylic acid]
overall analgesic profile ([1]; CFA inflammatory pain model, oral): rapid analgesic effect and a long-acting analgesic effect | analgesic effect on day 5-7 ([1]; single oral 20 mg/kg, compared with model group (PC)): the analgesic effect is reduced | duration of the analgesic effect ([1]; single oral dose (SP3101 20 mg/kg)): 72 h | analgesic effect 1.5 hours after oral administration ([1]; single oral dose (SP3101 20 mg/kg), mechanical pain threshold vs model group): obvious analgesic effect | long-acting (24 hours) analgesic effect while AMPK is inhibited [2]: eliminated | short-acting (1.5 hours) analgesic effect while AMPK is inhibited [2]: not affected | analgesic effect (Von Frey mechanical pain threshold) [3]: obvious analgesic effect | movement of the mice in an open field (sedative effect) [4]: obviously reduces movement of the mice in an open field | phosphorylation level of the AMPK [5]: significantly up-regulate
